{"source": "patent US20200254065A1", "about": "“LONG-ACTING GLP-2 ANALOGS” (OPKO Biologics Ltd., priority 2019, published 2020)", "key": {"[1]": {"test": "PK after single IV injection in rats", "assay_type": "in vivo", "details": "rats", "description": "Blood samples were collected at 0.5, 2, 4, 8, 12, 24, 36, 48, 72, 96- and 120-hours post-dose administration."}, "[2]": {"test": "2-compartmental pharmacokinetic modelling (MONOLIX 2018R2)", "assay_type": "in vivo, rat", "details": "for half-life: rat, in vivo", "protocol": "An in-depth PK modeling was performed to address the unexpected differences in half life, distribution, and pharmacological effect between V4, Cys-FMS-V4, and Apraglutide in the rat model. The analysis was performed with MONOLIX 2018R2 suite using a 2-compartmental pharmacokinetic model. The data used in this analysis was comprised from 3 independent experiments (data is presented as their average). The concentration versus time data of V4 that was formed from the Cys-FMS-V4 conjugate (the hydrolyzed peptide) was described appropriately using the values of the pharmacokinetic parameters of V4 peptide. Thus, the disposition of the hydrolyzed V4 was identical to that of the V4 peptide following the IV and SC administration.\nThe pharmacokinetics of Apraglutide in our studies was determined after SC administration. […] Based on this assumption, the values of volumes of distribution and clearance (Vpept, Vss, Vbeta, and CL) were calculated for Apraglutide (Table 13). The values of the other parameters of Apraglutide in Table 14 (the rate constants and the half-lives) are not dependent on this assumption."}, "small intestine": {"system": "small intestine", "test": "Intestine weight model in rats", "assay_type": "in vivo, SD rats", "protocol": "In the pharmacology study, the conjugates were injected subcutaneously twice, on days 1 and 3 at 1 mg/kg (peptide dose) and intestine weight was performed on day 6. In addition to the PEGylated conjugates, GLP-2-Gly2 was injected at the same dose and regimen for comparison. The average of the intestine weight of each group was compared to that of the vehicle group.\nIn a different study, several of the PEGylated teduglutide were injected as a single dose at 1 mg/kg and the intestine weight performed on day 6.\nPharmacology and pharmacokinetic studies were performed with the most promising GLP-2 variants to evaluate their efficacy and longevity, respectively. The intestine weight model in rats was conducted to evaluate efficacy, by measuring percent increase of the intestine weight of treated animals over the vehicle group. In this study, the peptides were injected twice, on days 1 and 3 at 1 mg/kg and the intestine weight was conducted on day 6.\nPEG20-FMS-V6, PEG20-Fmoc-V6 and PEG40-FMS-V6 were injected once at 1 mg/kg dose on day 1, while group D was also injected twice on days 1 & 3 at 1 mg/kg. The intestine weight was performed on day 6.\nThree different reversible PEGylated GLP-2 variants using mutated peptide #4 were injected at 2 mg/kg (peptide dose), once every 6 days for 12 days. On the 12th day the intestine was weighted and compared to the control group. PEG30-FMS-V4 was injected at 0.5 mg/kg as well to evaluate the efficacy dose range.\nIn addition to PEG30-FMS-V4 and PEG30-Fmoc-V4 that have been pharmacology evaluated by small intestinal weight evaluation (As shown in Example 5), four other reversible PEGylated variant 4 (“V4”) conjugates and two reversible linker-V4 conjugates were synthesized. All the above were injected to 6 normal SD rats/group once at 2 mg/kg (peptide dose), while on the 6th day, animals were scarified, and the small intestine was weighted followed by histopathology evaluation. […] Therefore, slices from three areas of the intestine (duodenum, jejunum and ilium) were stained with hematoxylin and eosin and at least 7 Crypts+Villi length/slice were measured. The averaged Villi+Crypt length of each treatment group (n=6) was compared to the vehicle group (negative control) and calculated as percentage increase over vehicle.\nAdditional studies were conducted to evaluate the efficacy of the V4 peptide and the reversible MAL-FMS-V4. The long acting effect of V4 and the conjugates were evaluated at Day 6 and Day 10 following treatment (Study reference 15203). All test groups (n=9) were injected SC with 2 mg/kg peptide content at Day 1. At Days 6 and 10, animals were sacrificed and the small intestine underwent histopathology evaluation (6 animals for Day 6, 3 animals for Day 10). FIGS. 12 and 13 show the pharmacology effect of different V4 conjugates and Apraglutide and Glepaglutide as measured by the percent increase of small intestine weight and crypts plus villi length over vehicle, respectively.\nTo further evaluate the pharmacology efficacy of V4 and Cys-FMS-V4, an experiment was performed to test their acute and prolonged effect on the small intestine (Study reference 15205). In addition, V4 and Cys-FMS-V4 were administrated as a single SC injection on Day 1 at 3 different doses (0.5, 2.0 or 8.0 mg/kg peptide content, 6 rats per group) to assess the dose dependence effect. The pharmacological effect on small intestine weight and villi plus crypts length was measured at Days 3, 7 and 14, and the results are presented in FIGS. 15 and 16. […] It should be noted that this acute response was higher for V4 compared to Cys-FMS-V4 at all 3 dose levels."}, "[3]": {"details": "single IV 2 mg/kg peptide content"}, "[4]": {"details": "SD rats, SC on days 1 and 3 at 1 mg/kg peptide dose (2 injections), intestine weight on day 6"}, "[5]": {"details": "single dose 1 mg/kg peptide, intestine weight on day 6, average of two studies"}, "[6]": {"details": "0.5 mg/kg peptide dose once every 6 days for 12 days, weighed on 12th day"}, "[7]": {"details": "2 mg/kg peptide dose once every 6 days for 12 days, weighed on 12th day"}}, "note": "Read-outs that look alike come from different tables or passages of the source. Numbered stars: 1 amine (or outer) side, 2 acyl side, 3 side chain; on linkers, the order of the positions; unused ones are H or OH. Square brackets hold non-standard residues; d marks the D form. Ends that are not written are not given here. Peptide text beside a SMILES is read from it. * marks the point of attachment. X2 = O=C(OCC1c2cc(N[*:1])ccc2-c2ccc(S(=O)(=O)O)cc21)[*:2]; X1 = N[C@@H](CSC1CC(=O)N(CCC(=O)*)C1=O)C(=O)O; Nle = CCCC[C@H](N)C(=O)O", "data": [{"compound": "CCCC[C@H](NC(=O)[C@H](CCC(=O)O)NC(=O)[C@H](CC(=O)O)NC(=O)[C@H](CO)NC(=O)[C@H](Cc1ccccc1)NC(=O)[C@H](CO)NC(=O)CNC(=O)[C@H](CCC(=O)O)NC(=O)CNC(=O)[C@H](Cc1c[nH]cn1)NC(=O)OCC1c2cc(NC(=O)CCN3C(=O)CC(SC[C@H](N)C(=O)O)C3=O)ccc2-c2ccc(S(=O)(=O)O)cc21)C(=O)N[C@@H](CC(N)=O)C(=O)N[C@H](C(=O)N[C@H](C(=O)N[C@@H](CC(C)C)C(=O)N[C@@H](CC(=O)O)C(=O)N[C@@H](CC(C)C)C(=O)N[C@@H](CC(C)C)C(=O)N[C@@H](C)C(=O)N[C@@H](C)C(=O)N[C@@H](CCCNC(=N)N)C(=O)N[C@@H](CC(=O)O)C(=O)N[C@@H](Cc1ccccc1)C(=O)N[C@H](C(=O)N[C@@H](CC(N)=O)C(=O)N[C@@H](Cc1c[nH]c2ccccc12)C(=O)N[C@@H](CC(C)C)C(=O)N[C@H](C(=O)N[C@@H](CCC(N)=O)C(=O)N[C@H](C(=O)N[C@@H](CCCCN)C(=O)N[C@H](C(=O)N[C@H](C(=O)N[C@@H](CC(=O)O)C(N)=O)[C@@H](C)O)[C@@H](C)CC)[C@@H](C)O)[C@@H](C)CC)[C@@H](C)CC)[C@@H](C)CC)[C@@H](C)O", "note": "(some centres unmarked) [Cys-FMS-V4] (X1-[X2]HGEGSFSDE[Nle]NTILDLLAARDFINWLIQTKITD-NH2)", "values": [{"measurement": "Fraction of V4 released from the conjugate (AUC ratio)", "setting": "[1]; single IV 2 mg/kg", "result": "~35", "unit": "%"}, {"measurement": "Cl/F_obs", "setting": "[1]; [3]", "result": "0.064 (μmol/kg)/(μmol/L)/h"}, {"measurement": "Vz/F_obs", "setting": "[1]; [3]", "result": "0.260 (μmol/kg)/(μmol/L)"}, {"measurement": "Detectability in blood after IV administration", "setting": "[1]; single IV 2 mg/kg, 24 hours post injection", "result": "could not be detected 24 hours post injection"}, {"measurement": "Fraction of Cys-FMS-V4 converted to V4 following SC administration", "setting": "[2]; 53.8% SC bioavailability, 67.9% hydrolyzed to V4", "result": "approximately 36.5%"}, {"measurement": "Vconj", "setting": "[2]; Cys-FMS-V4 conjugate", "result": 119, "unit": "mL/kg"}, {"measurement": "ka—conj", "setting": "[2]; Cys-FMS-V4 conjugate", "result": 0.0717, "unit": "h⁻¹"}, {"measurement": "kconje", "setting": "[2]; Cys-FMS-V4 conjugate", "result": 0.207, "unit": "h⁻¹"}, {"measurement": "kh", "setting": "[2]; Cys-FMS-V4 conjugate", "result": 0.438, "unit": "h⁻¹"}, {"measurement": "Fconj", "setting": "[2]; Cys-FMS-V4 conjugate, SC bioavailability fraction", "result": 0.538}, {"measurement": "% to V4", "setting": "[2]; absorbed Cys-FMS-V4 hydrolyzed to V4", "result": 67.9, "unit": "%"}, {"measurement": "half-life", "setting": "[2]; Cys-FMS-V4 conjugate, Table 15, read-out: t1/2 absorption (converted)", "result": 580, "unit": "min"}, {"measurement": "half-life", "setting": "[2]; Cys-FMS-V4 conjugate, read-out: t1/2 hydrolysis (converted)", "result": 94.8, "unit": "min"}, {"measurement": "half-life", "setting": "[2]; Cys-FMS-V4 conjugate, read-out: t1/2 other pathways (converted)", "result": 201, "unit": "min"}]}, {"compound": "PEG30-FMS-(GLP-2-Gly2): teduglutide reversibly PEGylated, PEG30 via FMS linker; heterogenous mixture of N terminus and Lys30 attachment", "values": [{"measurement": "Average Intestine weight (gr)", "setting": "small intestine; [4]", "result": 9.5, "unit": "gr"}, {"measurement": "Increase of intestine weight over vehicle (%)", "setting": "small intestine; [4]", "result": 73, "unit": "%"}, {"measurement": "Increase of intestine weight over vehicle (%)", "setting": "small intestine; [5]", "result": 34, "unit": "%"}]}, {"compound": "PEG30-FMS-V4 (HGEGSFSDE[Nle]NTILDLLAARDFINWLIQTKITD-NH2; also: PEG30-FMS conjugate, place not given here)", "values": [{"measurement": "Average Intestine weight (gr)", "setting": "small intestine; [6]", "result": 5.2, "unit": "gr"}, {"measurement": "Increase of intestine weight over vehicle (%)", "setting": "small intestine; [6]", "result": "−14", "unit": "%"}, {"measurement": "Average Intestine weight (gr)", "setting": "small intestine; [7]", "result": 6.9, "unit": "gr"}, {"measurement": "Increase of intestine weight over vehicle (%)", "setting": "small intestine; [7]", "result": 15, "unit": "%"}]}, {"compound": "PEG30-NRF-V4 (HGEGSFSDE[Nle]NTILDLLAARDFINWLIQTKITD-NH2; also: PEG30-NRF conjugate, place not given here)", "values": [{"measurement": "Avg. small intestine weight (gr)", "setting": "small intestine; normal SD rats, injected once at 2 mg/kg peptide dose, 6th day", "result": 4.0, "unit": "gr"}, {"measurement": "Small intestine weight increase over vehicle (%)", "setting": "small intestine; normal SD rats, injected once at 2 mg/kg peptide dose, 6th day, MAL-FMS-V4 compared to Vehicle 2", "result": "−8.0", "unit": "%"}]}, {"compound": "PEG40-EMCS-(GLP-2-Gly2): non-reversible PEGylation (PEG40, EMCS) conjugated to GLP-2-Gly2", "values": [{"measurement": "Average Intestine weight (gr)", "setting": "small intestine; [4]", "result": 6.6, "unit": "gr"}, {"measurement": "Increase of intestine weight over vehicle (%)", "setting": "small intestine; [4]", "result": 19, "unit": "%"}]}, {"compound": "PEG40-FMS-(GLP-2-Gly2): teduglutide reversibly PEGylated, PEG40 via FMS linker; heterogenous mixture of N terminus and Lys30 attachment", "values": [{"measurement": "Average Intestine weight (gr)", "setting": "small intestine; [4]", "result": 9.3, "unit": "gr"}, {"measurement": "Increase of intestine weight over vehicle (%)", "setting": "small intestine; [4]", "result": 70, "unit": "%"}, {"measurement": "Increase of intestine weight over vehicle (%)", "setting": "small intestine; [5]", "result": 27, "unit": "%"}]}, {"compound": "PEG40-Fmoc-(GLP-2-Gly2): teduglutide reversibly PEGylated, PEG40 via Fmoc linker; heterogenous mixture of N terminus and Lys30 attachment", "values": [{"measurement": "Average Intestine weight (gr)", "setting": "small intestine; [7]", "result": 6.9, "unit": "gr"}, {"measurement": "Increase of intestine weight over vehicle (%)", "setting": "small intestine; [7]", "result": 14, "unit": "%"}, {"measurement": "Average Intestine weight (gr)", "setting": "small intestine; [4]", "result": 9.4, "unit": "gr"}, {"measurement": "Increase of intestine weight over vehicle (%)", "setting": "small intestine; [4]", "result": 72, "unit": "%"}, {"measurement": "Increase of intestine weight over vehicle (%)", "setting": "small intestine; [5]", "result": 31, "unit": "%"}]}, {"compound": "PEG(Branch20)-FMS-(GLP-2-Gly2): teduglutide reversibly PEGylated with branched PEG via FMS linker; tables say Branch20, b275 Branched30", "values": [{"measurement": "Average Intestine weight (gr)", "setting": "small intestine; [4]", "result": 7.8, "unit": "gr"}, {"measurement": "Increase of intestine weight over vehicle (%)", "setting": "small intestine; [4]", "result": 42, "unit": "%"}]}, {"compound": "PEGBranched40-FMS-(GLP-2-Gly2): teduglutide reversibly PEGylated with branched PEG40 via FMS linker", "values": [{"measurement": "Average Intestine weight (gr)", "setting": "small intestine; [4]", "result": 8.1, "unit": "gr"}, {"measurement": "Increase of intestine weight over vehicle (%)", "setting": "small intestine; [4]", "result": 48, "unit": "%"}, {"measurement": "Increase of intestine weight over vehicle (%)", "setting": "small intestine; [5]", "result": 22, "unit": "%"}]}]}
